Measurements from paper PMC4569013, “Massive Bioaccumulation and Self‐Assembly of Phenazine Compounds in Live Cells” (Advanced Science, 2015).

What was measured:
[1] = tested on: RAW264.7 macrophages; test: Cell accumulation experiment, transmitted light microscopy of cellular staining pattern; assay type: cell-based; settings: for Inferred uptake: inferred from staining pattern after 72 hour incubation; for Observed cellular staining pattern (Notes): live cells, 72 hour incubation, 5 × 10^−6 M (2.5 × 10^−6 M for I); for Staining in fixed cells: methanol-fixed cells incubated 72 h with compound (control)
Method: Cell Accumulation Experiments and Transmitted Light Microscopic Examination: […] After a 24 h incubation (37 °C, 5% CO2), cells were incubated with solution of clofazmine or its chemical derivatives (300 μL of 5 × 10^−6 m concentration; measured cell viability ranging from 85% to 97% for all compounds tested at this concentration; Figure 1) in DMEM (no phenol red; plus 1 × 10^−3 M sodium pyruvate and 5% FBS). For Compound “I,” 2.5 × 10^−6 M of compound solution in media was used for the RAW 264.7 macrophages incubation because of lower cell viability at higher concentrations (IC50 = (3.95 ± 0.11) × 10^−6 M). A solution of clofazmine or other chemical derivatives was made by a diluting stock solutions (2.5 × 10^−3 M in DMSO; 10 × 10^−3 M stock in DMSO were stored at −80 °C for further use) into DMEM with 5% FBS. […] The extracellular concentration of each compound in each well was maintained by daily replacement of the compound‐containing media. After 72 h of incubation with clofazmine or its derivatives, compound‐containing media were removed and cells were washed twice with media. Live cells in the chambered glasses were examined under inverted transmitted light microscopy (Nikon Eclipse Ti microscope) with a 40× objective and color camera. As a control experiment, fixed cells were also microscopically examined after incubation with the compounds. Cells were seeded on the chambered cover glasses at the density of 1.5 × 10^4 cells cm^−2 (RAW264.7 macrophages) or 2.5 × 10^4 cells cm^−2 (MDCK epithelial cells). After an overnight incubation (37 °C, 5% CO2), media was removed from the wells and cold methanol (−20 °C) was added to each well. After 30 s, remaining methanol was removed by washing with media with 5% FBS. Fixed cells were incubated (37 °C, 5% CO2) with clofazmine or derivatives (300 μL of 5 × 10^−6 M; 2.5 × 10^−6 M for I) in media with 5% FBS. After 72 h, fixed RAW264.7 or MDCK cells were washed with media and examined using the same transmitted microscopy conditions as the live cells.

[2] = tested on: RAW264.7 macrophages; test: XTT colorimetric cytotoxicity assay; assay type: cell-based; settings: Mus musculus, RAW 264.7 macrophages, 72 h incubation, read-out: IC50 (cell viability, XTT)
Method: Cytotoxicity Measurements: A 3′‐bis(4‐methoxy‐6‐nitro)benzene‐sulfonic acid hydrate (XTT) colorimetric assay was performed to assess the cytotoxicity of the clofazmine derivatives in RAW264.7 macrophages or MDCK epithelial cells using a Cell Proliferation Kit II (Roche Chemicals, Indianapolis, IN). […] The absorbance value in each well was measured at 495 nm against a reference wavelength at 650 nm using a microplate reader (Synergy 2, BioTek Instruments, Winooski, VT). […] The IC50 value for each compound was calculated from the concentration‐response curve generated by a nonlinear regression (curve fit) method in GraphPad Prism version 5.0 (GraphPad Software, Inc., San Diego, CA). The concentration of clofazimine or its chemical derivatives used for further in vitro cell studies was determined based on cell viability (%) assay results (see the next section).

[3] = Solubility measurements in cell culture media (DMEM) with or without FBS; assay type: physicochemical; settings: at the concentrations added to the cells
Method: Solubility Measurements: Solutions containing the phenazine derivatives were made in cell culture media (DMEM) with or without FBS (10%). After a 24 h incubation, the solutions were centrifuged (10 000 × g, 10 min), the supernatant was removed and the precipitate was dissolved in 9 M H2SO4. The supernatant was diluted with 10 M NaOH to precipitate the remaining solubilized compound. The diluted supernatant was centrifuged (10 000 × g, 10 min) followed by dissolution of the precipitate in 9 M H2SO4. Both fractions were spectrophotometrically measured with a Biotek microplate spectrophotometer (λ = 540 nm) and phenazine content was determined using calibrated clofazimine standards.

[4] = set-up: method as in PMID 21800872; settings: DMEM with 5% FBS; cited from earlier work
[5] = tested on: RAW264.7 macrophages; test: Confocal fluorescence microscopy, intracellular localization of inclusions; assay type: cell-based; settings: 5 × 10^−6 M, 72 h, live cells
Method: (§1) Confocal Fluorescent Microscopy: A Nikon A1 confocal microscope was used for further investigation of live cells incubated with chiral pairs of compounds (T and U) and the parent compound, P. Since crystals or vesicular forms containing chemicals inside the cells incubated with Compound P, T, or U were fluorescent when viewed with the TRITC filter sets, intracellular distribution of these compounds in RAW264.7 or MDCK cells were visualized using a Nikon A1 confocal microscopy (Nikon Instruments Inc., Melville, NY) equipped with diode‐based lasers and a Nikon Apo 60×/1.4 NA oil immersion lens. Briefly, RAW264.7 macrophages or MDCK epithelial cells were seeded in the 8‐well Nunc Lab‐Tek II chambered (#1.5) cover glasses (Thermo Scientific, Pittsburgh, PA) at a density of 8 × 10^3 cells cm^−2 (RAW264.7 cells) or 1.5 × 10^4 cells cm^−2 (MDCK cells) and allowed to adhere overnight (37 °C, 5% CO2). Then, 5 × 10^−6 M of Compound “P” or the related isomers, “T” or “U” in DMEM with 5% FBS (300 μL) was added to the cells and the cells were incubated for 72 h (37 °C, 5% CO2). For live cell imaging, after the removal of media, cells were washed with HBSS buffer twice. Hoechst 33342 (Invitrogen, Carlsbad, CA) was used for staining cell nuclei and FM 1‐43 (Molecular Probes T35356, Invitrogen) for the plasma membrane. Cells were incubated with 300 μL of 1:1 (v/v) dye mixtures of 5 μg mL^−1 Hoechst 33342 and 7 × 10^−6 M FM 1‐43 in HBSS for 15 min at room temperature. Without fixative, the confocal imaging of the live cells was performed using lasers for DAPI (excitation/emission wavelength: 405 nm/450 ± 25 nm), FITC (488 nm/525 ± 25 nm), and TRITC (561 nm/596 ± 25 nm) channels. Z‐stack images of the cells were captured along the Z‐axis (interval, 1 μm) in three fluorescence channels and analyzed by using the Nikon NIS‐Elements 3.2 confocal software (Nikon Instruments Inc., Melville, NY). […]

[6] = tested on: MDCK epithelial cells; test: as above; assay type: cell-based, Canine; settings: 5 × 10^−6 M, 72 h, live cells
Method: as §1

Inferred uptake [1]	Solubility in serum containing media [3]	SMILES	Observed cellular staining pattern (Notes) [1]	Cellular staining relative to clofazimine ([1]; live macrophages, 72 h)	Staining in fixed cells [1]	IC50 [2] [µM]	Precipitate formation in media [4]	Intracellular localization of compound (fluorescence, TRITC channel) [5]	Intracellular localization of compound (fluorescence, TRITC channel) [6]
Excellent	–	OCCN=c1cc2n(-c3ccc(Cl)cc3)c3ccccc3nc-2cc1Nc1ccc(Cl)cc1 [I]	Dark brown, crystal-like inclusions present in live cells	comparable in morphology and intensity to those of clofazimine	absent in fixed cells	3.95	–	–	–
Moderate	stably solubilized	CC(C)/N=c1\cc2n(-c3ccc(Cl)cc3)c3ccccc3nc-2cc1Nc1ccc(Cl)cc1 [Clofazimine, clofazimine, reference compound]	Orange-brown staining pattern associated with perinuclear cytoplasmic vesicles	–	–	–	did not form visible precipitates	–	–
Moderate	–	CC(CN=c1cc2n(-c3ccc(Cl)cc3)c3ccccc3nc-2cc1Nc1ccc(Cl)cc1)c1ccccc1 (centres unmarked) [Compound T]	Faint orange perinuclear vesicles are present in live cells	–	Staining not observed in fixed cells	–	–	localized at the periphery of the cell nuclei	localized at the periphery of the cell nuclei
